Measurements: ChEMBL document CHEMBL1201862, “PubChem BioAssay data set” (2004)
Activity calls are given as the source filed them.

Legend:
[1] = biological target: Cytochrome P450 2C9 (Homo sapiens, UniProt P11712)
[2] = biological target: T1, Cytochrome P450 1A2 (Homo sapiens, UniProt P05177);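 note: PubChem cytochrome P450 panel assay, CYP1A2 panel member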
T1 sequence (P05177 whole entry): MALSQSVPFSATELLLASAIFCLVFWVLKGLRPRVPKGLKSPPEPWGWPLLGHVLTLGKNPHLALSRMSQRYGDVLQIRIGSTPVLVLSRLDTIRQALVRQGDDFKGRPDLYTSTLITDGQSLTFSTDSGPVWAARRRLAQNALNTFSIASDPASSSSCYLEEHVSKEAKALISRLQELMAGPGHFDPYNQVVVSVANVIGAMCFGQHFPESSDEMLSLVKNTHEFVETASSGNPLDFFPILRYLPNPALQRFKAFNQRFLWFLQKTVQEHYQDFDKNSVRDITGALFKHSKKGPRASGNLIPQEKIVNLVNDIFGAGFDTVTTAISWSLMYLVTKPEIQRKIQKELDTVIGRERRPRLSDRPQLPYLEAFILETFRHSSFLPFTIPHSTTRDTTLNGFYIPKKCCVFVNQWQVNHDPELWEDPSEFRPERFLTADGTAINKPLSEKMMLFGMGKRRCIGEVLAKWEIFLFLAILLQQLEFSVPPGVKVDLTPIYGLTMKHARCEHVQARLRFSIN

[3] = biological target: NAD-dependent protein deacylase sirtuin-5, mitochondrial (Homo sapiens, UniProt Q9NXA8); test: SIRT5 desuccinylase inhibitors, dose response, biochemical, fluorescence imaging, cherry-pick, set 5 (AID 720591);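 note: desuccinylation of succinyl peptide AMC substrate read as fluorescence after trypsin release; potency of inhibitors that lower fluorescence and may act on trypsin instead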
Sequence of NAD-dependent protein deacylase sirtuin-5, mitochondrial (Q9NXA8 whole entry): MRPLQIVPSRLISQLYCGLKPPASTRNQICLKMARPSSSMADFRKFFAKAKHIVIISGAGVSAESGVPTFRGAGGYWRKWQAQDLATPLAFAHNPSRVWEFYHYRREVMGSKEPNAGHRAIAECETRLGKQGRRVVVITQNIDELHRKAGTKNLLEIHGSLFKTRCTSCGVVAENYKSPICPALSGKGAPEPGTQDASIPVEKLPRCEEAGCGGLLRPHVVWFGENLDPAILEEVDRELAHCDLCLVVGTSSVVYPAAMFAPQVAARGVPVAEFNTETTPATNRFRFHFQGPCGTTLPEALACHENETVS

[4] = biological target: T2, Rac GTPase-activating protein 1 (Homo sapiens, UniProt Q9H0H5); test: MgcRacGAP GTPase-activating activity inhibitors, confirmation, biochemical, ADP Hunter fluorescence, primary and confirmatory (AID 624330); assay type: functional
T2 sequence (Q9H0H5 whole entry): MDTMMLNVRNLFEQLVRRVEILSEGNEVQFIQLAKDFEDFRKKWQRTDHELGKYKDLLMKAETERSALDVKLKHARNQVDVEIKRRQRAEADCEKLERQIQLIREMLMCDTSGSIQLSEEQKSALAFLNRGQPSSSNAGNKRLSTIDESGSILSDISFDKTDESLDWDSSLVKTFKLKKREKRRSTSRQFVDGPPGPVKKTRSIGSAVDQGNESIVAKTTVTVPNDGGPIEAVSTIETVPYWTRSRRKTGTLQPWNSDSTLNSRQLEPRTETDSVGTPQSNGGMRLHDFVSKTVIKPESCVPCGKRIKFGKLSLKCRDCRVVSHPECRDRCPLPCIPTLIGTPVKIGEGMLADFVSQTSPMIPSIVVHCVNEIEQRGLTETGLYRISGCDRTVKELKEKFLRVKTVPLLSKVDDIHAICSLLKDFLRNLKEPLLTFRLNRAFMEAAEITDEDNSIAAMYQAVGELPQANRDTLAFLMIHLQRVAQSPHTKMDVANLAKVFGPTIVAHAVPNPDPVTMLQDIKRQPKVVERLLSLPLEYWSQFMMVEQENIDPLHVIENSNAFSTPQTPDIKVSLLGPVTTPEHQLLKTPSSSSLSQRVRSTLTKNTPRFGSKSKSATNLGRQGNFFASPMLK

[5] = test system: HEK293; test: inhibitors of LMP1-driven NF-kB reporter, dose response, cell-based, HEK293, luciferase, cherry-pick (AID 588343); assay type: functional; details: Homo sapiens
[6] = test system: Vero; test: Vero cell cytotoxicity, cytotoxicity control for flavivirus capping enzyme inhibitors (AID 588742); assay type: functional; details: Chlorocebus sabaeus
[7] = CEM21 lymphoblast cell cytotoxicity, dose response, cytotoxicity control for viral fusion inhibitor project, CellTiter-Glo luminescence, cherry-picked (AID 652042); assay type: functional, cell-based;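 note: potency for signal decrease meaning cytotoxicity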
[8] = inhibitors of HIV Env-driven cell fusion, dose response, cherry-pick (AID 652057); assay type: functional, cell-based
[9] = inhibitors of clade B AD8 Env fusion, dose response, cell-based, cherry-pick (AID 652062); assay type: functional;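 note: luciferase signal from cell-cell fusion driven by HIV-1 clade B AD8 Env; potency is for inhibitors of fusion seen as a drop in luminescence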
[10] = biological target: T3, Corticotropin-releasing factor receptor 2/Corticotropin-releasing factor-binding protein (Homo sapiens, UniProt P24387+Q13324); test: Dose Response confirmation of uHTS hits for small molecule antagonists of the CRF-binding protein and CRF-R2 receptor complex.; assay type: functional; details: read-out: IC50_Mean
T3 sequence (Q13324 whole entry): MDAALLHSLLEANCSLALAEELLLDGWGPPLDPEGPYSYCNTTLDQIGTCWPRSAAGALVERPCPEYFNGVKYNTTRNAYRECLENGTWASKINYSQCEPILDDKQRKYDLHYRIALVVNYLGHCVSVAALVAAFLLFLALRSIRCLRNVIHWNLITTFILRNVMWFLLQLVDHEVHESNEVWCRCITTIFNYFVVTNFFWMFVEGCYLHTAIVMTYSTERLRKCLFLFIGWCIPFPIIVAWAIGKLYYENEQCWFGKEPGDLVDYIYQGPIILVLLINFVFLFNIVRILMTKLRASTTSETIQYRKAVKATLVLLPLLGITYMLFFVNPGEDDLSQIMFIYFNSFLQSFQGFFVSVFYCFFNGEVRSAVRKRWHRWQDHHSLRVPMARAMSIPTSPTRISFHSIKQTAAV
T3 sequence (P24387 whole entry): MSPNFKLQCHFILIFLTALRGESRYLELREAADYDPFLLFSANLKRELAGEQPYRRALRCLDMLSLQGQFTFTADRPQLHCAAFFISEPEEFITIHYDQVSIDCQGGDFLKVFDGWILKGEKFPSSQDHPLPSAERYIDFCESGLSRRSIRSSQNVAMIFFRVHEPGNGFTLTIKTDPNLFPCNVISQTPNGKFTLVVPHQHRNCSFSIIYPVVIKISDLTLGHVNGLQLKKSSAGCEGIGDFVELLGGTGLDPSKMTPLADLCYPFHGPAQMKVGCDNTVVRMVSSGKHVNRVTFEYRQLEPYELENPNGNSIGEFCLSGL

[11] = biological target: T3, Corticotropin-releasing factor receptor 2/Corticotropin-releasing factor-binding protein; test: activators of CRF receptor 2 with binding protein – uHTS hits, confirmation (AID 602473); assay type: functional; details: read-out: EC50_Mean
[12] = CRF-BP/CRF-R2 complex antagonists, dose response, cell-based, uHTS hits, 384-well (AID 651639); assay type: functional, Homo sapiens; details: read-out: IC50_Mean
[13] = biological target: Cytochrome P450 2D6 (Homo sapiens, UniProt P10635);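 note: CYP2D6 member of a cytochrome P450 panel assay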
Sequence of Cytochrome P450 2D6 (P10635 whole entry): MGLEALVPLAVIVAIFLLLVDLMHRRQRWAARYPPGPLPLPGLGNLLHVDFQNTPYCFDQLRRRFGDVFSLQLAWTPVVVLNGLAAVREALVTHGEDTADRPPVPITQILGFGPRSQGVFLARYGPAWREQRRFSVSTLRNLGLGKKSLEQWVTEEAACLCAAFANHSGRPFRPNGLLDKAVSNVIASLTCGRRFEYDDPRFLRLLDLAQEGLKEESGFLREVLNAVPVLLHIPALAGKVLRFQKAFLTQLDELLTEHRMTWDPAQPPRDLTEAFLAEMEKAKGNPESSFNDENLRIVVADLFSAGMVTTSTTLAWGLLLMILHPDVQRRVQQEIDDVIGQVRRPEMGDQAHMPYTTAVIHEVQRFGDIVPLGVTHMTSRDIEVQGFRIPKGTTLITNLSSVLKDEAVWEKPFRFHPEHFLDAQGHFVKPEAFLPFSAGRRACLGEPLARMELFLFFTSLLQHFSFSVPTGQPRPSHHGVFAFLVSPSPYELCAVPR

[14] = test system: Streptococcus sp. 'group A'; test: growth inhibition of control SK(-) GAS strain, dose response, counter-screen for streptokinase expression inhibitor project, luminescence, kanamycin, BacTiterGlo, confirmation (AID 1900); assay type: functional, organism-based
[15] = test system: Streptococcus; test: Group A Streptococcus viability loss, dose response, counter-screen for streptokinase expression inhibitor project, luminescence, BacTiterGlo (AID 1915); assay type: functional, organism-based;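 note: potency for reduction of bacterial viability or growth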
[16] = biological target: T4, Streptokinase A (Streptococcus pyogenes serotype M1, UniProt P10520); test: S. pyogenes streptokinase expression inhibitors, potency, dose response, plasminogen activation absorbance, OD405 (AID 1914); assay type: functional, Streptococcus pyogenes M1 GAS;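 note: secreted streptokinase activity via plasminogen activation per viability signal from cell pellet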
T4 sequence (P10520 whole entry): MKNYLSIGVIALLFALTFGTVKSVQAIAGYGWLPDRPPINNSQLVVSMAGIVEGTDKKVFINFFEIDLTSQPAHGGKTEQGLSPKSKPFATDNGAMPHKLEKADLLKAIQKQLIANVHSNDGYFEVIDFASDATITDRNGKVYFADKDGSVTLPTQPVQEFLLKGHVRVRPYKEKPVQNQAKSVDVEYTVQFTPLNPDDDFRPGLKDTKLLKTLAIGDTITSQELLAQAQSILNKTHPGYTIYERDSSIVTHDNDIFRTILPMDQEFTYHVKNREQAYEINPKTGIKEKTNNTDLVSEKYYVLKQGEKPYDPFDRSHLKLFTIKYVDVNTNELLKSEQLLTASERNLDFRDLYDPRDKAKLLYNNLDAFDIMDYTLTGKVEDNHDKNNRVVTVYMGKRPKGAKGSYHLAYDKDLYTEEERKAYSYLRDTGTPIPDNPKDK

[17] = biological target: T5, Estrogen receptor (Homo sapiens, UniProt P03372);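 note: potency for inhibiting coactivator peptide recruitment to the receptor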
T5 sequence (P03372 whole entry): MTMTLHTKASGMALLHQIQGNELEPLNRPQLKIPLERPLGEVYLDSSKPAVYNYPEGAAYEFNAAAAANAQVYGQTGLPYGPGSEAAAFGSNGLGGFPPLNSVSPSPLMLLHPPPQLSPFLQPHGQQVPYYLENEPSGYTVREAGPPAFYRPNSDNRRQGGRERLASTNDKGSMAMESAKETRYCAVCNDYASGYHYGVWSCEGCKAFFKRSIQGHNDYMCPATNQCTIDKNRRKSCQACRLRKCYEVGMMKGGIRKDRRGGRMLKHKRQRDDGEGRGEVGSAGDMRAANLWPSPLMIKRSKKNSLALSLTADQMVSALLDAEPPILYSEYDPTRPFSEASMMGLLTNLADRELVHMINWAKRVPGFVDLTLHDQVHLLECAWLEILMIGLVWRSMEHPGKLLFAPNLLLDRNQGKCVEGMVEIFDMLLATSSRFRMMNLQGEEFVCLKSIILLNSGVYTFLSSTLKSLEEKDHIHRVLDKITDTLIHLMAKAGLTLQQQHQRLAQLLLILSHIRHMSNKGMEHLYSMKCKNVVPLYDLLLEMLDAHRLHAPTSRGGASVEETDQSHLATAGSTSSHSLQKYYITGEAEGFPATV

Sequence of Cytochrome P450 2C9 (P11712 whole entry): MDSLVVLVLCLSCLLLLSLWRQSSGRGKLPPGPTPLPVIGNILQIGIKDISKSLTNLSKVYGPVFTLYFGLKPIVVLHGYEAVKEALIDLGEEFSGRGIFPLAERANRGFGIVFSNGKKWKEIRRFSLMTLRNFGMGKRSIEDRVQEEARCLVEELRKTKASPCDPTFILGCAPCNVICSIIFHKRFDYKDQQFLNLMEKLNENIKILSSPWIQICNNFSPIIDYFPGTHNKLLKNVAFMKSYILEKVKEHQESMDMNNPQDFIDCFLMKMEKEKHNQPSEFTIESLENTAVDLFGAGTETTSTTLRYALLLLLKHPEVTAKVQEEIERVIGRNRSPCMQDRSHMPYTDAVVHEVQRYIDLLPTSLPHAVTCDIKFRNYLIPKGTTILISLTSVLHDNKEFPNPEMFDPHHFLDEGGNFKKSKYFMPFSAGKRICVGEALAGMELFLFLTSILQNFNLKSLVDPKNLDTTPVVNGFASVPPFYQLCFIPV

Structure (SMILES): O=C(c1coc(=O)c2ccccc12)N1CCN(Cc2ccccc2)CC1
- AC50 [1]: inconclusive
- AC50 [2]: 10 µM (inconclusive)

Structure (SMILES): C=CCc1cc(OC)ccc1OCCN1CC(C)OC(C)C1 (stereo not given)
- AC50 [3]: > 30 µM (inactive)
- IC50 [4]: 70.5 µM (active)

Structure (SMILES): COc1ccc(C(=O)Nc2cc(O)nc3ncnn23)cc1
- AC50 [3]: 8.75 µM (active)

Structure (SMILES): Cc1ccc(OCC(=O)NNC(=S)NC(=O)C2CCCCC2)c(C)c1
- AC50 [5]: 39.5 µM (active)

Structure (SMILES): COc1ccc(S(=O)(=O)N2CCN(C(S)=NCC3CCCO3)CC2)cc1OC (stereo not given)
- AC50 [5]: 268 µM (active)

Structure (SMILES): C/C(=N\NC(=O)CNc1cccc2ccccc12)c1ccc(Br)s1
- CC50 [6]: > 40 µM (active)

Structure (SMILES): Cc1ccc(-c2ccc3c(c2)O[C@H](CN(C)Cc2cccnc2)[C@@H](C)CN([C@H](C)CO)S3(=O)=O)cc1
- AC50 [7]: 13.7 µM (active)
- AC50 [8]: 27 µM (active)
- AC50 [9]: 23.8 µM (active)

Structure (SMILES): Clc1ccccc1NN(Cc1ccncc1)c1ccccc1Cl
- IC50 [10]: < 0.368 µM (active)
- EC50 [11]: > 53 µM (inactive)
- IC50 [12]: > 20 µM (inactive)
- AC50 [13]: 3.16 µM (inconclusive)

Structure (SMILES): O=C(c1[nH]c(C(F)(F)F)nc1-c1ccccc1)N1CCCN(Cc2ccc(F)cc2)CC1
- AC50 [3]: > 30 µM (inactive)

Structure (SMILES): Cc1nn(Cc2ccc(C(=O)Nc3nc4c(C)cccc4s3)o2)c(C)c1Br
- EC50 [14]: 4.94 µM (active)
- EC50 [15]: 8.54 µM (active)
- EC50 [16]: 5.58 µM (active)
- IC50 [17]: > 50 µM (not active)
